These results are taken from PubChem BioAssay AID449762 (Southern Research Specialized Biocontainment Screening …, 2010).

In general, IC50 refers to the point on the concentration scale where inhibition reaches its midpoint. The IC90 is the concentration at which the effect reaches the 90% level.

Inconclusive results are not listed. A value given as a limit tells only on which side of the number the result lay.

The assay has as its system M. tuberculosis H37Rv growth inhibition, 7H9 media. In words: M. tuberculosis growth inhibition, HTS (AID 449762).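 As to all read-outs here: bacterial growth assessed after seven days of incubation.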 The settings on record: for IC90: measured here: IC90 growth inhibition.

In the case of `CCOC(=O)c1ccc(N=c2sc(C(=O)OC)cc(=O)n2CCCN2CCOCC2)cc1`, the IC50 was 4.52 µM and the IC90 amounted to 12 µM. In the same order, the values of `N#Cc1c(-c2ccccc2)c(-c2ccccc2)nn(CC(=O)NNC(=O)Nc2ccc(Cl)c(Cl)c2)c1=O` are 49.2 µM and 55.5 µM. In the same order, the values of `CCN(CC(=O)NCc1cccs1)C(=O)c1ccc([N+](=O)[O-])o1` are 19 µM and 58.3 µM. In the same order, the values of `COc1cc(N=Nc2ccc3ccccc3c2)ccc1O` are 37.8 µM and 63.1 µM. Turning to `CCOc1ccc(N=CC2=C(O)CC(c3ccco3)CC2=O)cc1` (configuration not stated), the half-maximal inhibitory concentration (IC50) was 80.4 µM and the IC90 was more than 100 µM. Consider `CCC(=O)Oc1ccc(C(=O)Nc2ccc3c(c2)C(=O)N(C2CCCCC2)C3=O)cc1`, for which the IC50 is 21.2 µM and the concentration for an effect of 90% (IC90) stood at 44.5 µM. On to `CNC(=S)Nc1ccc(N2CCN(c3ccc(C(F)(F)F)cn3)CC2)nc1`, for which the half-maximal inhibitory concentration (IC50) was 9.93 µM and the 90% effect concentration (IC90) is more than 100 µM. In the same order, the values of `CCOC(=O)CSc1ncc(OC)c(Sc2ccc(OC)cc2)n1` are 7.53 µM and 73.4 µM. In the same order, the values of `COc1ccc(OC)c(CN2CCN(C(=O)CNC(=O)c3ccc(C(C)(C)C)cc3)CC2)c1` are 47.4 µM and 67.8 µM. In the same order, the values of `COC(=O)CSc1ncnc2c1cnn2-c1ccc(C)cc1C` are 3.82 µM and 7.95 µM. `CCn1c2ccccc2c2cc(CNCc3ccc(OC)cc3OC)ccc21`: the IC50 is 12.2 µM and the IC90 amounted to 14.1 µM. In the case of `O=C(NCCc1ccc(Cl)cc1)c1ccc(CS(=O)Cc2ccc(Cl)cc2)o1` (configuration not stated), the 50% inhibitory concentration (IC50) is 37.7 µM and the 90% effect concentration (IC90) worked out at 49.1 µM.

As to `Cc1ccc(C(=O)Nc2cccc(C(F)(F)F)c2)cc1Nc1ncnc2nc[nH]c12`, the half-inhibitory concentration (IC50) is 50 µM and the IC90 is more than 100 µM. In the same order, the values of `O=C(Nc1cccc(-c2ccc(N3CCCCC3)nn2)c1)c1ccc(Br)o1` are 16.5 µM and 42.4 µM. For `CCCCOC(=O)NS(=O)(=O)c1sc(CC(C)C)cc1-c1ccc(Cn2c(CC)nc3c(C)cc(C)nc32)cc1`, the IC50 was 26.4 µM and the IC90 is 35.4 µM.

For the compound `CCc1ccc2nc(N(CCCN(C)C)C(=O)c3ccc(S(=O)(=O)N4CCCc5ccccc54)cc3)sc2c1`, the 50% inhibitory concentration (IC50) is 28.1 µM and the 90% effect concentration (IC90) is 33.9 µM. On to `O=C1C=C(c2ccc3[nH]ccc3c2)C[C@@H](c2ccc(Cl)cc2)C1`, for which the 50% inhibitory concentration (IC50) was 75.3 µM and the IC90 is more than 100 µM.

Turning to `N#Cc1ccc(OCC(O)CN2CCN(c3ncc(C(F)(F)F)cc3Cl)CC2)cc1` (configuration not stated), the 50% inhibitory concentration (IC50) is 15.2 µM and the IC90 is 24 µM. In the case of `O=C(OCC(=O)N1CCN(c2ccccc2)CC1)c1cnc(Cl)c(Cl)c1`, the IC50 is 20 µM and the 90% effect concentration (IC90) was 41.7 µM. In the same order, the values of `CCCCCOc1ccc(NC2=CC(=O)CCC2)cc1` are 52.4 µM and more than 100 µM. As for `CS(=O)(=O)c1ccc([C@@H](O)[C@@H](CF)NC(=O)C(Cl)Cl)cc1`, the IC50 was 10.1 µM and the IC90 worked out at 24.7 µM. In the same order, the values of `CC(Sc1nnc(NC2CCCCC2)s1)C(=O)Nc1ccc2c(c1)C(=O)c1ccccc1C2=O` (configuration not stated) are 11.5 µM and 12.6 µM.

For `Nc1c(-c2ccccn2)cnn1-c1nc(-c2ccc(F)cc2)cs1`, the 50% inhibitory concentration (IC50) is 12.6 µM and the IC90 is more than 100 µM. In the case of `COc1ccc(N(CC(=O)Nc2cc(Cl)ccc2C)S(=O)(=O)c2c(C)n[nH]c2C)cc1`, the concentration for half-maximal inhibition (IC50) is 45.8 µM and the concentration for an effect of 90% (IC90) was 51.2 µM. In the case of `Clc1ccc2c(c1)C(c1ccccc1Cl)=NCc1nnc(N3CCN(CCOc4ccccc4)CC3)n1-2`, the 50% inhibitory concentration (IC50) was 43 µM and the 90% effect concentration (IC90) was 48 µM. As to `O=C1C(=O)c2ccccc2-c2ccccc21`, the IC50 is 6.31 µM and the concentration for an effect of 90% (IC90) worked out at 6.91 µM. In the case of `CC(C)CNc1nnnc2c1sc1nc(N3CCOCC3)c3c(c12)CC(C)(C)SC3`, the IC50 is 74 µM and the IC90 was more than 100 µM. In the same order, the values of `CO[C@@]12[C@H](COC(N)=O)C3=C(C(=O)C(C)=C(N)C3=O)N1C[C@@H]1N[C@@H]12` are 39.6 µM and 69.5 µM. Turning to `Nc1nonc1C(=O)NCCNCc1c(OCc2ccccc2F)ccc2ccccc12`, the IC50 was 39.8 µM and the concentration for an effect of 90% (IC90) stood at 50.5 µM. In the same order, the values of `O=S1(=O)CCC(N=Cc2ccc(-c3ccc(Cl)cc3)o2)C1` (configuration not stated) are 54.8 µM and more than 100 µM. In the case of `O=C(CSc1cccc[n+]1[O-])c1cccs1`, the IC50 was 12 µM and the concentration for an effect of 90% (IC90) was determined as 16.5 µM. As for `COc1ccc(NCc2nnc(SCC(=O)c3ccc(OC)cc3)o2)cc1`, the IC50 was 7.11 µM and the concentration for an effect of 90% (IC90) was found to be 13.4 µM.

As for `O=C(CSc1ccccn1)Nc1nonc1[N+](=O)[O-]`, the half-maximal inhibitory concentration (IC50) is 1.45 µM and the IC90 worked out at 2.25 µM. In the same order, the values of `CCCOc1ccc2c(c1)C(=NN=C(N)N)c1cc(OCCC)ccc1-2` are 12.4 µM and 13.1 µM. In the same order, the values of `Cc1ccc(-c2ccnc(=S)[nH]2)cc1` are 44.9 µM and more than 100 µM.

With `COc1ccc(-c2c(C#N)c(SCC(=O)c3cc4ccccc4oc3=O)nc(C)c2C(=O)Nc2ccccc2)cc1`, the IC50 is 45.9 µM and the concentration for an effect of 90% (IC90) is 75.6 µM. Take `COc1ccccc1C(=O)NC(=S)/C=C1/N(C)c2ccccc2C1(C)C`: the half-maximal inhibitory concentration (IC50) is 34.4 µM and the concentration for an effect of 90% (IC90) is 43.9 µM. In the same order, the values of `Cc1ccc(C)c(C2C(=O)c3ccccc3C2=O)c1` are 3.94 µM and 16.3 µM. In the same order, the values of `Oc1ccc2ccccc2c1C1Nc2cccc3cccc(c23)N1` are 75 µM and more than 100 µM. In the same order, the values of `CCOC(=O)C1CCN(c2cc3c(cc2NC(=O)c2ccccc2Cl)n(C)c(=O)n3C)CC1` are 46.6 µM and 53.9 µM. Consider `CCCCCC(=O)Nc1cccc2ccccc12`, for which the half-maximal inhibitory concentration (IC50) is 14.1 µM and the concentration for an effect of 90% (IC90) was more than 100 µM.

Consider `O=c1c2ccc(Cl)cc2nc(-c2ccc([N+](=O)[O-])cc2)n1O`, for which the IC50 was 82.6 µM and the IC90 was more than 100 µM. For the compound `Cc1nn(C(C)(C)C)c(NC(=O)c2ccc(Cl)cc2Cl)c1Br`, the 50% inhibitory concentration (IC50) is 2.97 µM and the concentration for an effect of 90% (IC90) is more than 100 µM. In the same order, the values of `CC(C)(C)c1ccc(OCCCC(=O)NC2=NCCS2)cc1` are 23 µM and 60.6 µM. For `CCN1C(N(C)CCc2c[nH]c3ccccc23)=N[C@@H](c2cccc(C(F)(F)F)c2)C(C(=O)OC)=C1C`, the IC50 is 21.5 µM and the 90% effect concentration (IC90) was 23.7 µM. Consider `COc1ccc(-c2ccc(C#N)c(SCC(=O)OCc3ccccc3)n2)cc1OC`, for which the concentration for half-maximal inhibition (IC50) was 20.1 µM and the IC90 turned out to be 69.5 µM. In the same order, the values of `COc1cccc(CC2(CO)CCCN(Cc3[nH]c4ccc(C)cc4c3C)C2)c1` (configuration not stated) are 44 µM and 50.4 µM.

Take `Cc1cc2cc(CNC(=O)NC3CCCCC3)ccc2[nH]1`: the IC50 is 23.3 µM and the concentration for an effect of 90% (IC90) came to 50.9 µM. In the case of `Cc1ccc(Cl)cc1N1CCN(CC(=O)NC2CCCc3ccccc32)CC1` (configuration not stated), the IC50 is 31.5 µM and the IC90 was found to be 46.1 µM.

For `Cc1nc(N2CCN(c3ccccn3)CC2)c2c(C)c(C(=O)N3CCN(c4ccc(F)cc4)CC3)sc2n1`, the IC50 is 11.1 µM and the IC90 is 12.5 µM. Take `O=C1/C(=C/Nc2ccc3c(c2)OCO3)CCc2ccccc21`: the IC50 was 72.8 µM and the IC90 was more than 100 µM. In the same order, the values of `COc1ccc(-n2nnnc2S(=O)(=O)CC(=O)N2CCCCC2)cc1` are 12.7 µM and 27 µM. Turning to `O=C1c2ccccc2C(=O)N1Nc1ccccc1`, the IC90 was more than 100 µM. Regarding `Cn1c(-c2c(N)n(CCc3ccccc3)c3nc4ccccc4nc23)nc2ccccc21`, the IC50 was 7.64 µM and the IC90 is more than 100 µM. As for `O=c1[nH]c(=O)n(C2CCCO2)cc1F` (configuration not stated), the concentration for half-maximal inhibition (IC50) was 29 µM and the IC90 was found to be 55.3 µM. In the same order, the values of `CCN(CC)S(=O)(=O)c1ccc2oc(SCC(=O)Nc3cc(C)on3)nc2c1` are 1.39 µM and 5.88 µM. In the same order, the values of `Cc1noc(C)c1COc1ccc(C(=O)OCC(=O)NC23CC4CC(CC(C4)C2)C3)cc1` are 8.33 µM and 24.5 µM. In the same order, the values of `COc1ccc(-c2nc(NC(=O)Cn3ccc(C(F)(F)F)n3)sc2C)cc1` are less than 0.2 µM and 2.92 µM. `CNC(=S)/N=C/NOCc1c(Cl)cccc1Cl`: the IC50 is 5.44 µM and the IC90 was found to be 12.9 µM. In the same order, the values of `Cc1nc(-c2ccc(Cl)cc2)sc1C1(C)CC(c2ccc(C#N)cc2)=NO1` (configuration not stated) are 51.4 µM and more than 100 µM.

The compound `CCCCCCSc1nsc(NC(=O)CC(C)C)n1` yielded an IC90 of more than 100 µM. With `Cc1cc(Br)ccc1NC(=O)c1cnc(N2CCN(c3ccccn3)CC2)c2ccccc12`, the half-inhibitory concentration (IC50) is 1.24 µM and the IC90 is 3.49 µM.

For `CCCc1ccc2oc(C(=O)N(C)Cc3nccs3)c(C)c2c1`, the IC50 is 32.1 µM and the concentration for an effect of 90% (IC90) was 60.3 µM. In the same order, the values of `CN1/C(=C\C(=O)COC(=O)c2ccc([N+](=O)[O-])o2)C(C)(C)c2ccccc21` are 1.04 µM and 3.54 µM. In the same order, the values of `C=C(CCC(=O)c1ccccc1)C(=O)c1ccccc1` are 7.32 µM and 18.7 µM. In the same order, the values of `Cc1ccc(-c2nc3c(c(=O)c4ccccc4n3C)c(=O)n2Cc2ccco2)cc1` are 11.4 µM and 36.3 µM. Consider `NC(=O)c1cccn1-c1ncc(C(F)(F)F)cc1Cl`, for which the half-maximal inhibitory concentration (IC50) is 6.8 µM and the IC90 is 16.6 µM.

As for `CC1=NN(C(=O)c2ccc(Br)cc2)C(O)(c2ccccc2)C1` (configuration not stated), the IC50 is 48.1 µM and the IC90 is 65.6 µM.

On to `O=C(Cn1ncc(Cl)c(Cl)c1=O)c1ccc2c(c1)OCCO2`, for which the half-maximal inhibitory concentration (IC50) is 6.83 µM and the 90% effect concentration (IC90) is 12.2 µM. For the compound `S=C(NN=C1CCN(Cc2ccccc2)CC1)NC1CCCCC1`, the IC50 is 16.7 µM and the 90% effect concentration (IC90) was 25.3 µM.

As for `CCc1cc(/C(Cc2ccccn2)=N\Nc2ccccc2)c(O)cc1O`, the IC50 is 60.5 µM and the concentration for an effect of 90% (IC90) came to 77.4 µM. In the same order, the values of `CSC(=S)NCc1cccnc1` are 11.5 µM and 34.7 µM.
